What was measured:
[1] = test system: Stat5a/b; assay: Clinical prostate cancers ex vivo in explant organ cultures: nuclear Stat5a/b immunohistochemistry; format: cell-based, human; details: 7 days, N6BAP 5, 10, 25, 50 and 100 μM; C5 100 m
Procedure: The specimens comprised de-identified excess tissue obtained after the completion of pathology diagnosis. A zero-sample prior to organ culture was formalin-fixed for each individual prostate cancer for the analysis of the nuclear Stat5a/b status. The prostate organ cultures were performed as described earlier (Ahonen et al., Endocrinology (2002), 143:228-238). Briefly, prostate cancer tissue was cut into approximately 1 mm^3 pieces in a plain culture medium and transferred onto lens papers lying on stainless steel grids in petri dishes. The medium was phenol-free medium 199 with Earle's salts (Sigma) containing dialyzed 5% fetal calf serum, G-penicillin (100 IU/ml), streptomycin sulfate ([…]), and glutamine (100 μg/ml). […] Tissue explants were cultured in a medium containing the N6BAP or control compound C5 at indicated concentrations (C5: […]; N6BAP: 5, 10, 25, 50 and 100 μM) 7 days, after which the explants were fixed in formalin and analyzed for Stat5a/b activation and viability of prostate cancer epithelial compartment. Viability of the epithelial cells in the prostate cancer explants at the end of the cultures were scored by counting the viable epithelial cells per explant.
Nuclear Stat5a/b indexes were determined by counting the Stat5-positive cells per 500 epithelial cells in the cultured explants in each treatment group.

[2] = biological target: T1, Stat5a (Homo sapiens, UniProt P42229); assay: Stat5 dimerization assay (FLAG-/MYC-tagged Stat5a co-immunoprecipitation) in PC-3 cells; format: cell-based; set-up: expressed in transfected cells; host or cells: PC-3; details: 2 hours pretreatment, hPrl 10 nM 30 minutes
T1 sequence (P42229 1-794): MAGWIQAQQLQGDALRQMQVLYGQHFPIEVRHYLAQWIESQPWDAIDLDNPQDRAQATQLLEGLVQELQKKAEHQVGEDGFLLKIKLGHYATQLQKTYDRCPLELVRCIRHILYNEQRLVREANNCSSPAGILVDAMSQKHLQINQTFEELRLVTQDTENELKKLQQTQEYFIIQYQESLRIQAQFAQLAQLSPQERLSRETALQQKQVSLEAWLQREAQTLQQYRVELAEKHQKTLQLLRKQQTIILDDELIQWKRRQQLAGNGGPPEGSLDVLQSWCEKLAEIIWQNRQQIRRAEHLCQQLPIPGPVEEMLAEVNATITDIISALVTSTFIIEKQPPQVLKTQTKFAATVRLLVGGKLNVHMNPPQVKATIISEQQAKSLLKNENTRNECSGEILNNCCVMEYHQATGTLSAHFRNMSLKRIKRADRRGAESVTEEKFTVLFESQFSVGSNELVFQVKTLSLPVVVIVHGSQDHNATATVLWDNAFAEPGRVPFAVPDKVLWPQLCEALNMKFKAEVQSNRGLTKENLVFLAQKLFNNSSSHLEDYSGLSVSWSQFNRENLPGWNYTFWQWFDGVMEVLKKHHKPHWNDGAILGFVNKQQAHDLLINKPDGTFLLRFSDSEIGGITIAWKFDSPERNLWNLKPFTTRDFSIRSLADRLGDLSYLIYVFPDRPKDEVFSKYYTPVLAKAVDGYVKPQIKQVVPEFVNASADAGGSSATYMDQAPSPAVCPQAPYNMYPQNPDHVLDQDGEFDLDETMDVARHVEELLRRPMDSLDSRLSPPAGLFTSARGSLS
Procedure: FLAG-tagged Stat5a and MYC-tagged Stat5a were generated as follows. Plasmid pCMV3-FLAG-Stat5a, pCMV3-MYC-Stat5a and pPrlR were co-transfected using FuGENE6 (Roche) into PC-3 cells (2 μg of each plasmid per 1×10^7 cells). The cells were starved for 20 hours, pretreated with N6BAP for 2 hours, then stimulated with hPrl (10 nM) in RPMI 1640 without serum for 30 minutes. The cell lysates were immunoprecipitated with 25 μl anti-FLAG M2 […] affinity gel (2 μg/ml, Sigma), anti-MYC pAb (1 μg/ml, Upstate) or normal rabbit serum (NRS). The primary antibodies were used in the immunoblottings at the following concentrations: anti-FLAG pAb (1:1000; Stratagene), anti-MYC mAb (1:1000; Sigma), anti-Stat5a/b mAb (1:250) (Transduction Laboratories) detected by horseradish peroxidase-conjugated secondary antibodies.
Lanes 1, 2, 4, 6, 8, 10, 12, 14 and 16 represent cells stimulated with human prolactin (Prl) for 30 minutes which induces dimerization of Stat5. Two hours prior to Prl-stimulation, the cells had been treated with DMSO (lanes 1-4), the control compound C5 (lanes 5 and 6) or N6BAP (lanes 7-16) to test whether the Stat5a/b-inhibitor compound, N6BAP, would be able to inhibit dimerization of Stat5. […] It should be noted the drug effect in this study was not due to cell apoptosis induction, as the treatment time was only 2 hours. […]

[3] = biological target: Stat3 (Homo sapiens, UniProt P40763); assay: IL-6-induced nuclear translocation of Stat3 in DU145 cells (immunofluorescence); format: cell-based; set-up: endogenous in cells; host or cells: DU145; details: 2 hours pretreatment, 10 nmol/L IL-6 30 minutes
Sequence of Stat3 (P40763 whole entry, species assumed): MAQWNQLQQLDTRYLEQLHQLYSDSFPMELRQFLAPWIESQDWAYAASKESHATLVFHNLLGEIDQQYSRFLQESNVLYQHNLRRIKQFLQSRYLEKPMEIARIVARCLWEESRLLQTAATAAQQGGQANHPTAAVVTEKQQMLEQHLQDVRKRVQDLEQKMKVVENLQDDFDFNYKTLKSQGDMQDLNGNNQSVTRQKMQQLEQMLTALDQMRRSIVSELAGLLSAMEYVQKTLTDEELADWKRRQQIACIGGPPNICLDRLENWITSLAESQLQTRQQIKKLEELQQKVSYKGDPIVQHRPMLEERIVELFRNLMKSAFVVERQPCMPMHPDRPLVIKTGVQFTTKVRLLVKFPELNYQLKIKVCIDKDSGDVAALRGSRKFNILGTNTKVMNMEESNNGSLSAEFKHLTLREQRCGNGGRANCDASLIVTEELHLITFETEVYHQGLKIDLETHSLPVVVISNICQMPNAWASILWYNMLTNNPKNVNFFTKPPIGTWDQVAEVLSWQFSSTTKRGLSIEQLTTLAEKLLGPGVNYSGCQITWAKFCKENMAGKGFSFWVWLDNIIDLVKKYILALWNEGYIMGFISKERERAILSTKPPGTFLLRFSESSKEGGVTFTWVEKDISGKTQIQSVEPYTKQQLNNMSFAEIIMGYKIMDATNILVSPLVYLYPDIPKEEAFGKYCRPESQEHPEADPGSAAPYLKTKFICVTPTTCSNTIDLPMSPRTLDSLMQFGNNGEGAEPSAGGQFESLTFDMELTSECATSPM
Procedure: DU145 prostate cancer cells were pretreated with N6BAP or vehicle (DMSO) for 2 hours and then stimulated with 10 nmol/L IL-6 for 30 minutes. Cells were fixed with 100% methanol for 15 min and subsequently permeabilized with 0.1% Triton X-100 in PBS (pH 7.4). After blocking with 2% bovine serum albumin in PBS, cells were incubated with an antibody specific for Stat3 at 4° C. for 2 hours. Cells were then washed with PBS and incubated with FITC-conjugated secondary antibody (Jackson ImmunoResearch) at room temperature for 1 hour. The images were taken by using an inverted fluorescence microscopy (Carl Zeiss).

| Structure (SMILES) | nuclear Stat5 expression in explant organ cultures [1] | dimerization of Stat5a [2] | nuclear translocation of IL-6-induced Stat3 [3] |
| --- | --- | --- | --- |
| Nc1nc(SCc2cccnc2)[nH]c(=O)c1NC(=O)c1ccco1 [C5, reference compound] | Intensive positive immunostaining for nuclear Stat5 | did not inhibit dimerization of Stat5a |  |
| Cc1cc(Nc2nc(N[C@@H](C)c3ncc(F)cn3)ncc2Cl)n[nH]1 [AZD1480, reference compound] |  |  | blocks nuclear translocation of IL-6-induced Stat3 efficiently |

From US20160038526A1, “TREATMENT OF PROSTATE CANCER” (THOMAS JEFFERSON UNIVERSITY, priority 2012, published 2016)
